Laboratory results from ChEMBL document CHEMBL5154636, “Discovery of STAT3 and Histone Deacetylase (HDAC) Dual-Pathway Inhibitors for the Treatment of Solid Cancer” (J Med Chem, 2021).

Columns and labels:
HCT-116 = test: Cytotoxicity against human HCT-116 cells assessed as reduction in cell viability incubated for 48 hrs by MTT assay; assay type: functional, cell-based; conditions: HCT-116, 48 h
MDA-MB-231 = test: Cytotoxicity against human MDA-MB-231 cells assessed as reduction in cell viability incubated for 48 hrs by MTT assay; assay type: functional, cell-based; conditions: MDA-MB-231, 48 h
MCF-10A = test: Cytotoxicity against human MCF-10 A cells assessed as reduction in cell viability at 32 uM incubated for 48 hrs by MTT assay relative to control; assay type: toxicity, cell-based
L02 = test: Cytotoxicity against human L02 cells assessed as reduction in cell viability at 32 uM incubated for 48 hrs by MTT assay relative to control; assay type: toxicity, cell-based; conditions: l02, 48 h
[1] = Acute toxicity in po dosed ICR mouse assessed as maximum tolerated dose measured after 7 days; assay type: organism-based; conditions: in vivo, time 7 day

Structure (SMILES) | IC50 (HCT-116) [µM] | IC50 (MDA-MB-231) [µM] | Activity (MCF-10A) | Activity (L02) | MTD at 168 h [1] [mg/kg]
COc1cc(/C=C/c2ccc(OCCN3CCN(CC(=O)NO)CC3)cc2)cc(OC)c1 | 8.87 | 7.42 |  |  | 
COc1cc(/C=C/c2ccc(OCc3cccc(C(=O)NO)c3)cc2)cc(OC)c1 | 13.7 | 9.22 |  |  | 
COc1cc(/C=C/c2ccc(O)cc2)cc(OC)c1 [PTEROSTILBENE] | 34.1 | 31.2 | Non-Toxic | Non-Toxic | > 400
COc1cc(/C=C/c2ccc(OCCc3cn(CC(=O)NO)nn3)cc2)cc(OC)c1 | 7.44 | 6.52 |  |  | 
O=C(CCCCCCC(=O)Nc1ccccc1)NO [VORINOSTAT] |  |  | 24% | 26% | > 400
COc1cc(/C=C/c2ccc(NCc3ccc(/C=C/C(=O)NO)cc3)cc2)cc(OC)c1 | 11.2 | 5.95 |  |  | 
COc1cc(/C=C/c2ccc(OCCCCCC(=O)NO)cc2)cc(OC)c1 | 4.1 | 3.56 |  |  | 
COc1cc(/C=C/c2ccc(OCc3ccccc3C(=O)NO)cc2)cc(OC)c1 | 13.9 | 7.18 |  |  | 
COc1cc(/C=C/c2ccc(OCCCCC(=O)NO)cc2)cc(OC)c1 | 3.35 | 4.21 |  |  | 
COc1cc(/C=C/c2ccc(OCCCC(=O)NO)cc2)cc(OC)c1 | 5.2 | 3.89 |  |  | 
COc1cc(/C=C/c2ccc(OCc3ccc(C(=O)NO)cc3)cc2)cc(OC)c1 | 10.4 | 6.88 |  |  | 
COc1cc(/C=C/c2ccc(OCCCCCCCC(=O)NO)cc2)cc(OC)c1 | 12.6 | 5.05 |  |  | 
